Assay results published in patent publication US20230090742A1, “AMINOPYRIMIDINYLAMINOBENZONITRILE DERIVATIVES AS NEK2 INHIBITORS” (Sumitomo Pharma Oncology, Inc., priority 2020, published 2023).

What was measured:
NEK2 = target: T1, NEK2 (Homo sapiens, UniProt P51955); test: NanoBRET Target Engagement Intracellular Kinase Assay for NEK2 in transfected HEK293 cells; format: cell-based; details: NEK2 target engagement, read-out: NanoBRET IC50
T1 construct: expressed in transfected cells; host or cells: HEK293
T1 sequence (P51955 1-445): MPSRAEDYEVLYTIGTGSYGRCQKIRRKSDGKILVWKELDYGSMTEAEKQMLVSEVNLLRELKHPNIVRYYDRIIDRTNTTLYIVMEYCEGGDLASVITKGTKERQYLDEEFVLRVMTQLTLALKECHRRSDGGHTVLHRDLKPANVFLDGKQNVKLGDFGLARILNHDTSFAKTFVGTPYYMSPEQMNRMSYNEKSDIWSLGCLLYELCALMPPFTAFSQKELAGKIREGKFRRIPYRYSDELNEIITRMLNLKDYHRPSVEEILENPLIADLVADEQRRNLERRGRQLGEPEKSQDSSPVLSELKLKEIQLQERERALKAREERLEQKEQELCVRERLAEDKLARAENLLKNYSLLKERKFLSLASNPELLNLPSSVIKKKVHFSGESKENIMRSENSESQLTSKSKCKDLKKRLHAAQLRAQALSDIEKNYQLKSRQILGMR
Experimental: In this example, the compounds described herein were tested for their inhibitory activity against NEK2 using a model of in vivo activity by the NanoBRET™ Target Engagement Intracellular Kinase Assay (Reaction Biology Corp.). The assay was performed according to the manufacturer's protocol, as detailed below.
HEK293 cells were cultivated (70-80% confluence) prior to the assay. The sample was trypsinized and HEK293 cells were collected.
To prepare lipid: DNA complexes, a 10 μg/ml solution of DNA in Opti-MEM without serum was prepared that consisted of the following ratios of carrier DNA and DNA encoding NanoLuc® fusion: 9.0 μg/ml of Transfection Carrier DNA, 1.0 μg/ml of NanoLuc fusion vector DNA and 1 ml of Opti-MEM without phenol red. The solution was mixed thoroughly. 30 μl of FuGENE HD Transfection Reagent was added into each milliliter of DNA mixture to form lipid: DNA complex. The sample was mixed by inversion 10 times and then incubated at ambient temperature for 20 minutes to allow complexes to form. In a sterile, conical tube, 1 part of lipid:DNA complex was mixed with 20 parts of HEK293 cells in suspension. The resulting sample was mixed gently by inversion 5 times. The cell and lipid: DNA complex was dispensed into a sterile tissue culture dish and incubated for 22-24 hours.
Each test compound is delivered from the compound source plate to the wells of 384-well white NBS plate by Echo 550.
Step 3. Preparation of Cells with NanoBRET™ Tracer K5 Reagent:
The medium was removed from the dish with the transfected HEK293 cells via aspiration, trypsinized and cells were allowed to dissociate from the dish. Trypsin was neutralized using medium containing serum and centrifuged at 200×g for 5 minutes to pellet the cells. The cell density was adjusted to 2×10^5 cells/ml in Opti-MEM without phenol red.
The Complete 20× NanoBRET™ Tracer K5 Reagent with Tracer Dilution Buffer was prepared according to the manufacturer's instructions. One part of Complete 20× NanoBRET™ Tracer Reagent was added to 20 parts of cells in the tube. The sample was mixed gently by inversion 10 times. Next, the cell suspension was dispensed into white, 384-well NBS plates with a final tracer K5 concentration of 2 μM. The plate was incubated at 37° C., 5% CO2 for 1 hour. A separate set of samples without tracer were prepared for background correction steps.
The plate was removed from the incubator and equilibrated to room temperature for 15 minutes. The 3× Complete Substrate plus Inhibitor Solution in Assay Medium (Opti-MEMR I Reduced Serum Medium, no phenol red) was prepared just before measuring BRET. The 3× Complete Substrate plus Inhibitor Solution was added to each well of the 384-well plate and incubated for 2-3 minutes at room temperature. The donor emission wavelength (460 nm) and acceptor emission wavelength (600 nm) were measured using the Envision 2104 plate reader.
To generate raw BRET ratio values, the acceptor emission value (600 nm) was divided by the donor emission value (460 nm) for each sample. To correct for background, the BRET ratio in the absence of tracer (average of no-tracer control samples) was subtracted from the BRET ratio of each sample.
BRET Ratio=[(Acceptor sample÷Donor sample)−(Acceptor no-tracer control÷Donor no-tracer control)]

EZH2 expression = test: Flow cytometry analysis for EZH2 expression in SW480 cells; format: cell-based; details: Homo sapiens, 24 hours treatment, 0-1000 nM, haploid and diploid cells, read-out: dose dependent decrease in EZH2 expression, IC50
Experimental: Reagents. MDA-MB-231 (Breast adenocarcinoma, triple negative breast cancer) and SW480 (colorectal adenocarcinoma, stem-like subtype) cells were purchased from ATCC and cultured as per manufacturer's instruction. Thymidine (Sigma, T9250) stock solution (100 mM) was prepared in PBS. 2′-Deoxycytidine (Sigma, D897) stock solution (240 mM) was prepared in distilled H2O. Nocodazole (Selleck Chemicals, S2775) stock solution (5 mg/mL) was made in dimethyl sulfoxide (DMSO). FxCycle Far Red stain (F10348) for cell cycle analysis was purchased from Thermo Fisher Scientific.
Antibodies. Polyclonal antibodies to phosphorylated-Ser55 Hec1 (PA5-85846; 1:1000) were purchased from ThermoFisher Scientific, and Phospho-Thr320 PP1α (2581S; 1:1000) and Total PP1α (2582S; 1:1000) were purchased from Cell Signaling Technologies. Monoclonal antibodies to Phospho-Ser10 Histone H3 (53348S; 1:1000), Total Histone H3 (14269; 1:5000), and EZH2-FITC (30233, 1:50) antibodies were purchased from Cell Signaling Technologies; Total Hec1 (ab109496; 1:10000) was purchased from Abcam; and Total NEK2 (sc-55601; 1:200) and GAPDH (sc-365062; 1:1000-2000) antibodies were purchased from Santa Cruz Technologies.
Flow Cytometry Analysis. […] A minimum of 100,000 events were analyzed in each sample, and the results were evaluated using FlowJo software. […]

- IC50 (NEK2): ≤ 50 nM
- IC50 (EZH2 expression): 184 nM
Compound: N#Cc1c(Nc2nc(Nc3ccc(N4CCNCC4)cc3)ncc2Cl)cccc1OCc1ccccc1F [Compound 16, 2-((5-chloro-2-((4-(piperazin-1-yl)phenyl)amino)pyrimidin-4-yl)amino)-6-((2-fluorobenzyl)oxy)benzonitrile]
